Laboratory results reported in patent US7124068B2, “Crystal structure of a deacetylase and inhibitors thereof” (Sloan-Kettering Institute for Cancer Research, priority 1999, dated 2006).

Columns and labels:
[1] = test system: PLZF-RARα APL cells; details: cited from earlier work
[2] = test system: HDLP; experiment: Histone deacetylase assay with [3H] acetyl-labeled histone substrate; assay type: biochemical, Aquifex aeolicus; details: in vitro
[3] = test system: lung tumors; details: mice; cited from earlier work
[4] = test system: mammary tumors; details: rats; cited from earlier work

Row | inhibition of HDLP histone deacetylase activity [2] | Molecule | responsiveness to retinoic acid-induced differentiation [1] | preventing the formation of lung tumors [3] | preventing the formation of mammary tumors [4]
1 | inhibited | CC(/C=C/C(=O)NO)=C\[C@@H](C)C(=O)c1ccc(N(C)C)cc1 [TSA, trichostatin A] | enhances their responsiveness | – | –
2 | – | suberoylanilide hydroxamic acid [SAHA] | – | effective | effective
